Results: patent publication US10406140B2, “5-substituted benzimidazole and 5-substituted azabenzimidazole derivative both having AMPK activation effect” (Shionogi & Co., Ltd., priority 2016, dated 2019)

Target: T1, Human AMPK α2ß2γ1 (Homo sapiens, UniProt O43741+P54646)
T1 construct: The full length cDNAs of human AMPK ß2 (NM_005399.3) and human AMPK α2 (NM_006252.3); The full length cDNAs of human AMPK ß2 (NM_005399.3); 6xHis (N); made in house; host or cells: Escherichia coli BL21 CodonPlus (DE3)-RIL
Experiment: Test Example 2: activator evaluation on phosphorylated human AMPK α2ß2γ1 (mobility-shift assay, FL-Peptide 7)
Format: biochemical
Conditions: human AMPK α2ß2γ1 pre-phosphorylated with CaMKK2; for EC150 (compound concentration showing 150% relative to the control (100%)): 25° C., 2 hours, 1% DMSO; for Emax: control without compound = 100%, read-out: Emax (maximum rate of increase in activity within the measurement range)
Procedure: The full length cDNAs of human AMPK ß2 (NM_005399.3) and human AMPK α2 (NM_006252.3) were inserted into the MCS1 and MCS2 of the pETDuet-1 vector to prepare a human AMPK ß2 and human AMPK α2 (6× His tag at the 5′ terminus) expressing plasmid. The plasmid was cotransfected with an expression plasmid, in which the full length cDNA of human AMPK γ1 (NM_002733.3) had been inserted into pET28b(+), into BL21 CodonPlus (DE3)-RIL to obtain an expression strain. The expression strain was cultured in TB medium, followed by induction with 0.5 mM IPTG, and cultured at 25° C. for 3 hours and then harvested.
Preparation method of human CaMKK2 used to impart activity to AMPK An expression vector, in which the full length cDNA of human CAMKK ß (NM_172226.1) had been inserted into pGEX-6P-3, was transfected into BL21 Star (DE3). The expression strain was cultured in TB medium, followed by induction with 0.5 mM IPTG, and cultured at 25° C. for 3 hours and then harvested.
Thus, phosphorylation treatment was carried out as pretreatment.
Human AMPK α2ß2γ1 in an amount to give a conversion rate of approximately 10% by reaction for 2 hours, and CaMKK2 in an amount capable of sufficiently imparting activity to AMPK for one hour were mixed in a buffer solution consisting of a 50 mM HEPES-NaOH buffer solution (pH 7.0), 100 mM NaCl, 5 mM magnesium chloride, 0.1% bovine serum albumin, 0.2 mM sodium orthovanadate(V), 1 mM ethylene glycol-bis(2-aminoethyl ether)-N,N,N′,N′-tetraacetic acid (EGTA), 5 mM disodium ß-glycerophosphate, 1 mM dithiothreitol and 0.2 mM ATP, and the resulting liquid was left to stand at 25° C. for 1 to 1.5 hours to sufficiently phosphorylate AMPK.
The resulting liquid was left to stand for 10 minutes.
The resulting liquid was allowed to react at 25° C. for 2 hours, and 10 μl of 20 mM EDTA was added thereto to stop the reaction.
To detect phosphorylated fluorescent substrates, the reaction mixture was applied to a measuring device, LabChip EZ Reader II manufactured by Caliper Life Science, Inc., for detecting fluorescence by using differences in mobility due to differences in charge. The setting conditions for the device were pressure, −1.5 PSI; upstream voltage, −2250 V; downstream voltage, −400 V; post sample buffer sip time, 40 seconds; final delay, 120 seconds; and peak order, Product First.
A conversion rate was calculated from the peak heights of the obtained substrate and product. The conversion rate when not containing a compound was used as a control, and a concentration dependent curve was made by plotting the rate of increase in activity to the control at each concentration of a compound.

T1 sequence (P54646 whole entry): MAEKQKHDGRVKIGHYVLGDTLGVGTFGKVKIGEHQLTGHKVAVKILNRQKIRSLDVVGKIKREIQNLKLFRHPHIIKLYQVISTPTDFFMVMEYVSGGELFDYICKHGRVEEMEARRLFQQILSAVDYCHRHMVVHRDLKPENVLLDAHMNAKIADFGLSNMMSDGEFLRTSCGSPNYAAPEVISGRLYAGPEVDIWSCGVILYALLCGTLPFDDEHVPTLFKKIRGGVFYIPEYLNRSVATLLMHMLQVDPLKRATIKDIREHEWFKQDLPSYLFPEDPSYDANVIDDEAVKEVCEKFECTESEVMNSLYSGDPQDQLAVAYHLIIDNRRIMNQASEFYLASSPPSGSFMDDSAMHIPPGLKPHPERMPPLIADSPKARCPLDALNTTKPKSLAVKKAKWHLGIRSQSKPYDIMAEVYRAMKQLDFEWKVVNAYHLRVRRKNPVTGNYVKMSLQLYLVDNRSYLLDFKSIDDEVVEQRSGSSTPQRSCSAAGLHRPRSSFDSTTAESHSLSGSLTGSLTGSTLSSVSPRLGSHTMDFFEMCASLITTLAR
T1 sequence (O43741 whole entry): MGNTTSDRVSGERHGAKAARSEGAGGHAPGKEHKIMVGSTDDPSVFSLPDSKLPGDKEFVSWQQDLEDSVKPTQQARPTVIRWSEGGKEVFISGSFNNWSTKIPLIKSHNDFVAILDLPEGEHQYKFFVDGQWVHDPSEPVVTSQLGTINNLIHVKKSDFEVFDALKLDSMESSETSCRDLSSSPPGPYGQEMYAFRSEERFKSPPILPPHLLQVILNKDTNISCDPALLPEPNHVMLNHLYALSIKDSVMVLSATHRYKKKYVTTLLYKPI
T1 sequence (P54619 whole entry partner): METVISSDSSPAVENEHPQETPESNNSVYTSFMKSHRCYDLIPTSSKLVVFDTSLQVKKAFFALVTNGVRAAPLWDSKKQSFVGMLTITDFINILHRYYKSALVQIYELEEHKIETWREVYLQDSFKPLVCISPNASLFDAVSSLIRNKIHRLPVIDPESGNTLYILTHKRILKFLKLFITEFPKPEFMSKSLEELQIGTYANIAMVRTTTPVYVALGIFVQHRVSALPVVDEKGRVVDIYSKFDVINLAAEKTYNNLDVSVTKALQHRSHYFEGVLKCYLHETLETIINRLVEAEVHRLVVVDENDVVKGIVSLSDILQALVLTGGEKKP

SMILES | EC150 (compound concentration showing 150% relative to the control (100%)) [nM] | Emax [%]
CS(C)(=O)=Nc1ccc(-c2ccc(-c3nc4nc(O[C@@H]5CO[C@H](CO)C5(F)F)[nH]c4cc3Cl)cc2)nc1 [Compound (I-2-4)] | 9.7 | 493
COC(=O)NC1CC=C(c2ccc(-c3nc4nc(O[C@@H]5CO[C@H](CO)C5(F)F)[nH]c4cc3Cl)cc2)CC1 (some centres unmarked) [Compound (I-1-9)] | 9.5 | 389
CS(C)(=O)=Nc1ccc(-c2ccc(-c3nc4nc(O[C@@H]5CO[C@H](CO)C5(F)F)[nH]c4cc3Cl)c(F)c2)cc1 [Compound (I-2-3)] | 4.2 | 609
CS(C)(=O)=Nc1ccc(-c2ccc(-c3nc4nc(O[C@@H]5CO[C@H](CO)C5(F)F)[nH]c4cc3F)cc2)cc1 [Compound (I-1-11)] | 1.1 | 601
CS(C)(=O)=Nc1ccc(-c2ccc(-c3nc4nc(O[C@@H]5CO[C@H](CO)C5(F)F)[nH]c4cc3F)c(F)c2)cc1 [Compound (I-2-8)] | 0.75 | 619
COC(=O)NC1CC=C(c2ccc(-c3nc4nc(O[C@@H]5CO[C@H](CO)[C@H]5F)[nH]c4cc3Cl)cc2)CC1 (some centres unmarked) [Compound (I-1-8)] | 21 | 412
CS(C)(=O)=Nc1ccc(-c2ccc(-c3nc4nc(OCCO)[nH]c4cc3Cl)cc2)cc1 [Compound (I-1-3)] | 19 | 235
CCS(=O)(CC)=Nc1ccc(-c2ccc(-c3nc4nc(O[C@@H]5CO[C@H](CO)C5(F)F)[nH]c4cc3Cl)cc2)cc1 [Compound (I-2-5)] | 6.2 | 575
CS(C)(=O)=Nc1ccc(-c2ccc(-c3nc4nc(O[C@@H]5CO[C@H](CO)[C@H]5F)[nH]c4cc3Cl)cc2)cc1 [Compound (I-1-5)] | 1.4 | 539
CS(C)(=O)=Nc1ccc(-c2ccc(-c3nc4nc(O[C@@H]5CO[C@H]6[C@@H]5OC[C@H]6O)[nH]c4cc3F)cc2)cc1 [Compound (I-1-2)] | 0.93 | 556
CS(C)(=O)=Nc1ccc(-c2ccc(-c3nc4nc(O[C@@H]5CO[C@H](CO)[C@@H]5F)[nH]c4cc3Cl)cc2)cc1 [Compound (I-1-6)] | 7.4 | 514
CNS(C)(=O)=Nc1ccc(-c2ccc(-c3nc4nc(O[C@@H]5CO[C@H](CO)C5(F)F)[nH]c4cc3Cl)cc2)cc1 (some centres unmarked) [Compound (I-1-12)] | 2.4 | 649
CC(=O)NC(C)(C)c1ccc(Oc2nc3nc(-c4ccc(-c5ccc(N=S(C)(C)=O)cc5)cc4)c(Cl)cc3[nH]2)cc1 [Compound (I-1-4)] | 3.8 | 364
CCS(=O)(CC)=Nc1ccc(-c2ccc(-c3nc4nc(O[C@@H]5CO[C@H](CO)C5(F)F)[nH]c4cc3F)cc2)cc1 [Compound (I-2-12)] | 0.54 | 595
CS(C)(=O)=Nc1ccc(-c2ccc(-c3nc4nc(O[C@@H]5CO[C@H](CO)C5(F)F)[nH]c4cc3Cl)cc2)cc1 [Compound (I-1-7)] | 2.1 | 504
CS(C)(=O)=Nc1ccc(-c2ccc(-c3nc4nc(O[C@@H]5CO[C@H](CO)C5(F)F)[nH]c4cc3F)cc2)nc1 [Compound (I-2-7)] | 3.1 | 445
O=S1(=Nc2ccc(-c3ccc(-c4nc5nc(O[C@@H]6CO[C@H](CO)C6(F)F)[nH]c5cc4Cl)cc3)cc2)CCOCC1 [Compound (I-2-6)] | 3.0 | 578
CN=S(C)(=N)c1ccc(-c2ccc(-c3nc4nc(O[C@@H]5CO[C@H](CO)C5(F)F)[nH]c4cc3Cl)cc2)cc1 (some centres unmarked) [Compound (I-2-2)] | 3.1 | 604
CN=S(C)(=N)c1ccc(-c2ccc(-c3nc4nc(O[C@@H]5CO[C@H](CO)C5(F)F)[nH]c4cc3F)cc2)cc1 (some centres unmarked) [Compound (I-2-11)] | 1.2 | 649
CS(C)(=O)=NC1CC=C(c2ccc(-c3nc4nc(O[C@@H]5CO[C@H](CO)C5(F)F)[nH]c4cc3Cl)cc2)CC1 (some centres unmarked) [Compound (I-2-9)] | 1.3 | 652
CS(C)(=O)=Nc1ccc(-c2ccc(-c3nc4nc(O[C@@H]5CO[C@H](CO)[C@H]5F)[nH]c4cc3F)cc2)cc1 [Compound (I-1-10)] | 3.1 | 399
CS(C)(=O)=NC1CC=C(c2ccc(-c3nc4nc(O[C@@H]5CO[C@H](CO)C5(F)F)[nH]c4cc3F)cc2)CC1 (some centres unmarked) [Compound (I-2-10)] | 2.1 | 604
